From US12234484B2, “Culture medium for pluripotent stem cells” (PROMOCELL GMBH, priority 2017, dated 2025)

Legend:
[1] = cited from earlier work; for biological half-life: under cell culture conditions
stem cells = conditions: cultured in the absence of FGF2; cited from earlier work
[2] = tested on: hiPS cell line SBI #SC101A-1; test: hPSC culture, microscopic analysis of morphological growth pattern and proliferation; format: cell-based, human; conditions: defined, feeder-free culture on vitronectin; Example 1 medium containing only the named factor(s); no FGF-2
Experimental: The culture vessel was coated with 0.5 μg/cm^2 of recombinant human vitronectin as ECM. For this, 100 μl of a diluted vitronectin solution per cm^2 of culture vessel surface is applied to the culture vessel with. The coated culture vessel is left for 2 hours at room temperature. The vitronectin solution was aspirated just before seeding the cells.
The cell line used in this experiment is the human foreskin fibroblast derived hiPS cell line SBI #SC101A-1 (obtainable from System Biosciences (SBI), Palo Alto, under the defined reference number).
The stem cell culture medium was prepared as described in Example 1. For cryopreserved cells, a ROCK-Inhibitor (10 μM Y-27632 or 2 μM Thiazovivin) is added to the stem cell culture medium. Alternatively, for existing proliferating cultures a clump passage was performed as described in Example 3 below.
The hPSCs were seeded in a 1:2 to 1:3 ratio (relative to the volume of the tissue culture vessel) into the ECM coated tissue culture vessel using an appropriate amount of culture medium. For example, 2-3 ml per well are used for 6-well plates and 15-25 ml for T-75 flasks.
After plating, the subcultured hPSCs were allowed to attach overnight (12-24 hours).
A medium change was performed: the stem cell culture medium including non-attached cells was aspirated, washed once with Dulbecco's PBS, w/o Ca^2+/Mg^2+ and the cells were provided with fresh culture medium (w/o ROCK-Inhibitors).
A media change was performed every 1-3 days.
The stem cell culture medium was aspirated and the hPSCs were washed twice with Dulbecco's PBS, w/o Ca^2+/Mg^2+. Next, 200-300 μl/cm^2 of dissociation buffer was added and the solution was incubated for 6-10 minutes in the incubator at 37° C. and 5% CO2. The dissociation buffer was carefully aspirated and 1-5 ml of fresh culture medium was added. The colonies were flushed away from the surface using a serological pipet. In order to maintain cell clumps of sufficient size flushing of more than 4-5 times was avoided. Then, cell clumps were dispensed into new ECM-coated culture vessels with fresh stem cell culture medium and the culture was continued according to the cell attachment step (step 2.3) of Example 2.
Induced pluripotent stem cells were cultured in the presence of the stem cell culture medium according to Example 1 without trimipramine in order to reproduce published observations that activin a on its own cannot fully support undifferentiated maintenance of most hPSC lines (Vallier et al., 2005; Xiao et al., 2006). Initiation of the hPSC culture was performed according to Example 2, followed by subculturing the cells according to Example 3.
It was also aimed to reproduce the published partial self-renewal support capabilities of trimipramine in human pluripotent stem cells (Kumagai et al., 2013). […]

For “TGF-β1: growth factor (ALK5 ligand) traditionally used in hPSC media”, the biological half-life [1] is given as 50 minutes.

In the case of CCN(CC)C(C)CN1c2ccccc2Sc2ccccc21 (centres unmarked) [profenamine], the “expression of pluripotency markers SSEA-3, SSEA-4 TRA-1-60, TRA-1-81 and OCT4” value (shortened to “expression”) (stem cells) is given as “induce the expression of known pluripotency markers”.

For “FGF-2: growth factor (FGFR ligand) traditionally used in hPSC media”, the biological half-life [1] is listed as 5-7 hours.

In the case of CC(CN1c2ccccc2Sc2ccccc21)N(C)C (centres unmarked) [promethazine], the “expression” value (stem cells) is given as “induce the expression of known pluripotency markers”.

For CCN(CC)CCCC(C)Nc1c2ccc(Cl)cc2nc2ccc(OC)cc12 (centres unmarked) [mepacrine], the “expression” value (stem cells) is listed as “induce the expression of known pluripotency markers”.

For CC(CN(C)C)CN1c2ccccc2CCc2ccccc21 (centres unmarked) [trimipramine], the “cell proliferation / expansion of hPSC” value [2] is listed as “not sufficient to effectively expand the human pluripotent stem cells”, the “maintenance of undifferentiated state (morphological phenotype)” value [2] is listed as “able to maintain the prototypical pluripotent morphological phenotype” and the half-life [1] is listed as 23 h. For the same molecule, the “expression” value (stem cells) was “induce the expression of known pluripotency markers”.

B1: activin a: homodimer of the inhibin beta A subunit (UniProtKB P08476), member of the TGF-β superfamily (protein, UniProt P08476 311-426, looked up)
Inhibin beta A chain: GLECDGKVNICCKKQFFVSFKDIGWNDWIIAPSGYHANYCEGECPSHIAGTSGSSLSFHSTVINHYRMRGHSPFANLKSCCVPTKLRPMSMLYYDDGQNIIKKDIQNMIVEECGCS
modifications: Inhibin beta A chain
notes: homodimer of the inhibin beta A subunit (UniProtKB P08476), member of the TGF-β superfamily
For B1, the “cell proliferation / expansion of hPSC” value [2] was “significant cell proliferation” and the “maintenance of undifferentiated state (morphological phenotype)” value [2] was “not able to robustly support the maintenance of the tested hPSC line in an undifferentiated state”.
